Source: patent publication US9968637B2, “Dopaminergic neurons differentiated from pluripotent stem cells and uses thereof” (THE MCLEAN HOSPITAL CORPORATION, priority 2010, dated 2018)

Tests used:
[1] = tested on: human ES cell-derived neural progenitor cells; experiment: Quantitative PCR transcriptional profile after differentiation with retinoic acid
[2] = tested on: human ES cell-derived FOXA2 expressing neural progenitor cells; experiment: Immunocytochemistry and cell counts of FOXA2 expressing DA neurons at DIV49; assay type: cell-based
Method: Media were changed every 2 days.
Neural progenitor cells were differentiated toward the DA neuron phenotype with mouse sonic hedgehog (Shh-N), human activated sonic hedgehog (C24II SHH-N), mouse fibroblast growth factor 8b (FGF8b), human FGF8A (all from R&D Systems, Inc.), 20 ng/ml brain derived neurotrophic factor (BDNF) (PeproTech EC Ltd), 1 ng/ml transforming growth factor type β3 (TGF-β3) (Calbiochem, San Diego, Calif.), 10 ng/ml glial cell line-derived neurotrophic factor (GDNF), 0.5 mM dibutyryl cAMP, and 0.2 mM ascorbic acid (AA) (all from Sigma-Aldrich). After 21 days (Day 35) cells were passaged using Tryple (Invitrogen Corporation) and spun at 1,000 rpm for 5 minutes. Cells were resuspended in N2 medium and plated again at a density of approximately 1,000,000-2,000,000 cells per well (24 well plate) on polyornithine/laminin-coated dishes in the presence of BDNF, AA, SHH, and FGF8. After an additional 7 days of culture (DIV42), cells were differentiated until Day 49 without SHH and FGF8 but in the presence of BDNF, AA, cAMP, GDNF, and TGF-β3.
Cells were fixed in 4% paraformaldehyde and analyzed by indirect immunofluorescence (Sonntag et al., 2005). Fluorescent signals were examined using an LSM510 Meta confocal microscope equipped with ultraviolet, argon, and helium-neon lasers (Carl Zeiss, Thornwood, N.Y.). […]
Quantitative analysis of immunocytochemistry was performed on randomly selected confocal fields from at least two independent differentiation experiments. In each field, images of separate channels (Hoechst, 488, 568, 594) were acquired at 40× magnification on an integrated confocal microscope (LSM510/Meta, Carl Zeiss) and stereology workstation (StereoInvestigator, MBF Bioscience, Inc., Williston, Vt.), where images of cells in independent channels and merged images were counted.

CC1=C(/C=C/C(C)=C/C=C/C(C)=C/C(=O)O)C(C)(C)CCC1 [RA, all-trans retinoic acid]
OTX2, PAX2 and HOXB1 levels ([1]; 10^-6 M and 10^-7 M RA, 22 days of differentiation, relative to conditions without RA): reduced OTX2 and PAX2 levels and increased HOXB1 levels
increase of expression levels of the midbrain transcription factor EN1 ([1]; 10^-8 M RA, 22 days of differentiation, relative to conditions without RA): more than 2000 fold
expression levels of the ventral neural transcription factor FOXA2 ([1]; all RA conditions tested (0, 10^-6 to 10^-9 M)): consistently low

B1: Noggin: recombinant Noggin protein (R&D Systems) (protein, UniProt Q13253 28-232, looked up)
Noggin: QHYLHIRPAPSDNLPLVDLIEHPDPIFDPKEKDLNETLLRSLLGGHYDPGFMATSPPEDRPGGGGGAAGGAEDLAELDQLLRQRPSGAMPSEIKGLEFSEGLAQGKKQRLSKKLRRKLQMWLWSQTFCPVLYAWNDLGSRFWPRYVKVGSCFSKRSCSVPEGMVCKPSKSVHLTVLRWRCQRRGGQRCGWIPIQYPIISECKCSC
cells coexpressing FOXA2, TH and β-tubulin ([2]; DIV49, cultures grown with Noggin alone during first 14 days): did not contain cells that coexpressed FOXA2, TH, and β-tubulin
cells coexpressing FOXA2, TH and β-tubulin ([2]; DIV49, cultures grown with or without Noggin during first 14 days (with WNT1)): contained cells that coexpressed FOXA2, TH and β-tubulin

B2: WNT1: secreted signaling protein encoded by the human WNT1 proto-oncogene; recombinant (protein, UniProt P04628 28-370, looked up)
Proto-oncogene Wnt-1: ANSSGRWWGIVNVASSTNLLTDSKSLQLVLEPSLQLLSRKQRRLIRQNPGILHSVSGGLQSAVRECKWQFRNRRWNCPTAPGPHLFGKIVNRGCRETAFIFAITSAGVTHSVARSCSEGSIESCTCDYRRRGPGGPDWHWGGCSDNIDFGRLFGREFVDSGEKGRDLRFLMNLHNNEAGRTTVFSEMRQECKCHGMSGSCTVRTCWMRLPTLRAVGDVLRDRFDGASRVLYGNRGSNRASRAELLRLEPEDPAHKPPSPHDLVYFEKSPNFCTYSGRLGTAGTAGRACNSSSPALDGCELLCCGRGHRTRTQRVTERCNCTFHWCCHVSCRNCTHTRVLHECL
cells coexpressing FOXA2, TH and β-tubulin ([2]; DIV49, cultures grown without WNT1 during first 14 days): did not contain cells that coexpressed FOXA2, TH, and β-tubulin
